How the values were obtained:
[1] = tested on: PFF1225c (C1 fragment), mitochondrial DNA polymerase; assay: DNA polymerase activity measurement of PFF1225c (C1 fragment), sensitivity to inhibitors; assay type: biochemical, Plasmodium falciparum; details: for inhibition action to the DNA polymerase activity: FIG. 12a, FIG. 13a
Description: When a ^3H amount taken in a DNA chain is measured with a liquid scintillation counter, the pigment of an iron ion causes quenching and an accurate measurement thus cannot be attained. Quenching is classified into three types such as chemical quenching, oxygen quenching, and coloration quenching, and calculation efficiency of a liquid scintillation counter decreases. The case of ^3H being a soft β ray particularly becomes a problem, and coloration quenching becomes a problem in the case of an iron ion. Thus, gallic acid that forms a complex with iron was used and gallic acid iron that is a purple complex was formed. […] The protocol in the case of adding an iron ion is shown below.
In order to prevent oxidation of iron, the reaction solution was exposed to a nitrogen gas for 30 minutes to be degassed.
The reaction solution obtained by adding 50 mM Tris-HCl (pH 7.5), 1 mM dTTP, 40 nM PolydA-dT12, and 10 mM FeCl2 and adjusted to be the total amount of 20 μl with degassed distilled water (DW). […] After the incubation, an iron ion was chelated by adding 10 μl of 100 mM EDTA to terminate the reaction. PicoGreen™ (Molecular Probes), which specifically binds to double-stranded DNA, was used in order to quantitatively determine an amount of DNA synthesized by the DNA polymerase.

[2] = tested on: DNA polymerase γ-like enzyme; details: Non-patent Document 5; cited from earlier work
[3] = biological target: T1, DNA polymerase γ (Homo sapiens, UniProt P54098); details: at a concentration from 50 to 100 mM; reported; cited from earlier work
T1 sequence (P54098 1-1239): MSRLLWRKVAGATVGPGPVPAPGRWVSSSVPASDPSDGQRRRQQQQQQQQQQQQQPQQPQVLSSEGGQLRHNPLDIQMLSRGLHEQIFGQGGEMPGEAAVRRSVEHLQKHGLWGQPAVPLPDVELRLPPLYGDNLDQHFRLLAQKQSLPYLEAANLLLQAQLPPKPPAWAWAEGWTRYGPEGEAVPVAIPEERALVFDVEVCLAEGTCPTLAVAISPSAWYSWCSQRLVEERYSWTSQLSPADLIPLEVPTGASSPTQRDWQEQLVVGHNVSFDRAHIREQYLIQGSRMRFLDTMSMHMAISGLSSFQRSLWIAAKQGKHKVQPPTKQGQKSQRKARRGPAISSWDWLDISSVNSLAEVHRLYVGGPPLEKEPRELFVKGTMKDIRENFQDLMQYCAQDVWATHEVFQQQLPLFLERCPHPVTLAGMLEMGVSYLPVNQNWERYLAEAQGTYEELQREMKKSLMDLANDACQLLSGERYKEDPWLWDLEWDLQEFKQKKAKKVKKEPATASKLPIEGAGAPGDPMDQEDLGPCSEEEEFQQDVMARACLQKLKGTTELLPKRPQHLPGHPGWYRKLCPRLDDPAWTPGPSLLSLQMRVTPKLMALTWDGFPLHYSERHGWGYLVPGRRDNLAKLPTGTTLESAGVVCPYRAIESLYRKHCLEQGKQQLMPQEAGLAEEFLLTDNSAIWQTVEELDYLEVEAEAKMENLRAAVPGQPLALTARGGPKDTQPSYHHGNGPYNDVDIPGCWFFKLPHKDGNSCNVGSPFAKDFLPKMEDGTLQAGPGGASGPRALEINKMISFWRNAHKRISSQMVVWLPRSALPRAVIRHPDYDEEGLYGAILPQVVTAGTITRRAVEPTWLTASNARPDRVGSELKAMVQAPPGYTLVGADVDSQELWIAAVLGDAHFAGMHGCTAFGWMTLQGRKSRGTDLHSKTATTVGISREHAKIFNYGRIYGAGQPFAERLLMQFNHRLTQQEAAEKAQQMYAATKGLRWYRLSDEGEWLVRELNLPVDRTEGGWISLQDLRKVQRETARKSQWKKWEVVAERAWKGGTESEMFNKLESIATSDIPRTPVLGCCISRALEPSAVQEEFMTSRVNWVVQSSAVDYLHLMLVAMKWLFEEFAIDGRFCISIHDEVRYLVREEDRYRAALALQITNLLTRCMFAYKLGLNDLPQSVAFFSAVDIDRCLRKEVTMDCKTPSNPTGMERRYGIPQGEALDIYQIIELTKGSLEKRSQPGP

[4] = biological target: T2, human mitochondrial DNA polymerase γ (Homo sapiens, UniProt P54098); assay: DNA polymerase activity, human mitochondrial DNA polymerase γ; assay type: biochemical; details: FIG. 12c
T2 sequence (P54098 1-1239): T1 sequence (P54098 1-1239)
Description: 0.1 μg of a C1 fragment was added per 10 μl. The mixed reaction solution was incubated at 37° C. for 30 minutes, then adsorbed to filter paper, dried, and washed with 5% Na2HPO4 4 times (for 10 minutes for each washing), thereafter washing twice with distilled water (DW) (for 5 minutes for each washing), and finally shaken with 100% ethanol for 5 minutes. The filter paper was then dried and the dried filter paper was contained in a vial container charged with 4 ml of a toluene cocktail, and an intake amount of ^3H was measured with a liquid scintillation counter.

[5] = tested on: PpPolA; details: FIG. 12b
Description: A reaction solution was obtained by adding 50 mM Tris-HCl, 0.5 mM dATP, dGTP, dCTP, 5 μM dTTP, activated DNA (0.5 μg/ml), 0.8 μM [^3H]dTTP (Moravek Co.: (MT-781) Thymidine 5′-triphosphate, tetrasodium salt, [methyl ^3H]), and an enzyme solution was further added thereto, a metallic ion, an inhibitor, etc. having respective concentrations (the total amount of 10 μl). 0.1 μg of a C1 fragment was added per 10 μl. The mixed reaction solution was incubated at 37° C. for 30 minutes, then adsorbed to filter paper, dried, and washed with 5% Na2HPO4 4 times (for 10 minutes for each washing), thereafter washing twice with distilled water (DW) (for 5 minutes for each washing), and finally shaken with 100% ethanol for 5 minutes. The filter paper was then dried and the dried filter paper was contained in a vial container charged with 4 ml of a toluene cocktail, and an intake amount of ^3H was measured with a liquid scintillation counter.

[6] = biological target: T3, mouse DNA polymerase α (Mus musculus, UniProt P33609); details: already reported; cited from earlier work
T3 sequence (P33609 1-1465): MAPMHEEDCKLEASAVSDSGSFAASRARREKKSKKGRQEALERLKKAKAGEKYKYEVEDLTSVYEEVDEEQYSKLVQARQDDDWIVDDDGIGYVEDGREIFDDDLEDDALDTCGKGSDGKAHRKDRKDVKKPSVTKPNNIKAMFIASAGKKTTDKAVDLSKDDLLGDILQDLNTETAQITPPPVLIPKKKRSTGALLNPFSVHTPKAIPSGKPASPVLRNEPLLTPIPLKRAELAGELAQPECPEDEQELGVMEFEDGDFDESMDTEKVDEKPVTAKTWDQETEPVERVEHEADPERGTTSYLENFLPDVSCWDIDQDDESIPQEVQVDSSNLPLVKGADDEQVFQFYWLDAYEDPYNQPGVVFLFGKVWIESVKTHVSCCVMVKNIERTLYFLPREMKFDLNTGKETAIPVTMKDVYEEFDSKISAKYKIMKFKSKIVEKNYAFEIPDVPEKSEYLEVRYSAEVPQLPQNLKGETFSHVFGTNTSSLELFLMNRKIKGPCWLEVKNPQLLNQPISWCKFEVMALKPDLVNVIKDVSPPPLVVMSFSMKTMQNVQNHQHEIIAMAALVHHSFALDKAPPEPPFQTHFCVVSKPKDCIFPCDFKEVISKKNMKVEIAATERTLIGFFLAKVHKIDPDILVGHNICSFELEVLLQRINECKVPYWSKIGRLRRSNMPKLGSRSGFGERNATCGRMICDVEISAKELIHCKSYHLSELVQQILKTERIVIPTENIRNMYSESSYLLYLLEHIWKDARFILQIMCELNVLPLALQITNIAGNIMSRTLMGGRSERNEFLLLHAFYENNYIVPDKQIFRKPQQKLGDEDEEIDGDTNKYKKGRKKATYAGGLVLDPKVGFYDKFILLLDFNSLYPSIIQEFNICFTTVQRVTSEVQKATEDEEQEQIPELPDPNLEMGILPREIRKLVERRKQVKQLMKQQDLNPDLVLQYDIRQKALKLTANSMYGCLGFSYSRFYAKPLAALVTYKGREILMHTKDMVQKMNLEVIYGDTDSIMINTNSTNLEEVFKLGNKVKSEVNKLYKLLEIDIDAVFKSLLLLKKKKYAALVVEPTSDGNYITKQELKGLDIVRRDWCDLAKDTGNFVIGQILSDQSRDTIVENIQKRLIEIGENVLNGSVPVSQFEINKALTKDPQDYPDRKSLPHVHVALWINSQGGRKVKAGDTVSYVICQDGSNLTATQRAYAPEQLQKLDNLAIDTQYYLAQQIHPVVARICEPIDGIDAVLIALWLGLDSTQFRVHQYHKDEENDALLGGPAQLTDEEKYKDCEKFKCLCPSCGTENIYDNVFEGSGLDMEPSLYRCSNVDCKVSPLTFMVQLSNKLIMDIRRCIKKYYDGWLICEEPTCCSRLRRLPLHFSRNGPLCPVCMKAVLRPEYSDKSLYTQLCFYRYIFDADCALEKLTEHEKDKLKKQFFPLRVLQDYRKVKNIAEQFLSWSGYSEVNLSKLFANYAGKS

[7] = biological target: T4, DNA polymerase γ (Mus musculus, UniProt P54099); details: already reported; cited from earlier work
T4 sequence (P54099 1-1218): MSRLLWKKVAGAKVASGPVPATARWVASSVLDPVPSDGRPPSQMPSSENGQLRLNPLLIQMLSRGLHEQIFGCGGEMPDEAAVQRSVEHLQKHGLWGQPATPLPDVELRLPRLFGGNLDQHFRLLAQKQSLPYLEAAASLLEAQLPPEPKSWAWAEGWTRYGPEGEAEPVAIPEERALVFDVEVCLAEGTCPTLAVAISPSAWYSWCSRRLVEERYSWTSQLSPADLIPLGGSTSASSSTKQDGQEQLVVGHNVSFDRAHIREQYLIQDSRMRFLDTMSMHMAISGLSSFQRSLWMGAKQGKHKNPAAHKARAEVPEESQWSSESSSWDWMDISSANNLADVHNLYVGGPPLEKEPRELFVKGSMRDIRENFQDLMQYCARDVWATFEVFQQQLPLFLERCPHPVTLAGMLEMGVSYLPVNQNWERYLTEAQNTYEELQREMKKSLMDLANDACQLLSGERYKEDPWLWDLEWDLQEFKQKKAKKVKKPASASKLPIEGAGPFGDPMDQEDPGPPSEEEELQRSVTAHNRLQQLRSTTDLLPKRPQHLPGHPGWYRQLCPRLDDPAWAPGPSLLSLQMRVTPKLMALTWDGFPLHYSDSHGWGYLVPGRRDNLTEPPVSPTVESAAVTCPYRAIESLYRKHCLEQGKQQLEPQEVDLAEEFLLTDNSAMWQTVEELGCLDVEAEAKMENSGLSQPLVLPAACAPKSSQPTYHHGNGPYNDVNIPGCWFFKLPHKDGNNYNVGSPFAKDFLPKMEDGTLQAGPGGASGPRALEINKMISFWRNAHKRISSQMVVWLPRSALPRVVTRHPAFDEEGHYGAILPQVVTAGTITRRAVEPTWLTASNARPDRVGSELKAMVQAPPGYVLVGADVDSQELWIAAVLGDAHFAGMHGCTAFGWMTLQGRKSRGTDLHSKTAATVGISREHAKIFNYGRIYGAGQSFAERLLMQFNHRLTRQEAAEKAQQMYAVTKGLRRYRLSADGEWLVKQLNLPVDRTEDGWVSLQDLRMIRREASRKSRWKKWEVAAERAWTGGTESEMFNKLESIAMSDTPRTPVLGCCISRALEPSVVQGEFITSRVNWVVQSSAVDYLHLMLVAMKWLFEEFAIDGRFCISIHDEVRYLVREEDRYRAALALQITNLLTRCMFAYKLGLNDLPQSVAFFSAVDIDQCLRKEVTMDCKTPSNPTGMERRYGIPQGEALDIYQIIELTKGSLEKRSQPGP

[8] = tested on: apicoplast DNA polymerase (POMUPfprex); details: reported; cited from earlier work
[9] = tested on: various DNA polymerases; details: reported; binds non-specifically; cited from earlier work

CCN1C(=O)C=CC1=O [NEM, N-ethylmaleimide]
DNA polymerase activity on addition of inhibitor ([1]; in the presence at a high concentration, FIG. 11c): the activity scarcely decreased | sensitivity or resistance of the enzyme to inhibitor [2]: sensitivity

Cc1cn([C@H]2CC[C@@H](COP(=O)(O)OP(=O)(O)OP(=O)(O)O)O2)c(=O)[nH]c1=O [ddTTP]
inhibition effect on DNA polymerase activity ([1]; along with increasing concentration, FIG. 11d): a weak inhibition effect was shown | remaining DNA polymerase activity ([1]; concentration increased to 400 mM, FIG. 11d): 50% | inhibition of DNA polymerase activity [3]: mostly inhibited | sensitivity or resistance of the enzyme to inhibitor [2]: resistance

Nc1ncnc2c1ncn2CCOCP(=O)(O)OP(=O)(O)OP(=O)(O)O [PMEApp]
sensitivity or resistance of the enzyme to inhibitor [2]: resistance

C[C@@]1(CO)[C@H](O)CC[C@@]2(C)[C@H]1CC[C@H]1C[C@@H]3C[C@@]12CC[C@]3(O)CO [aphidicolin]
DNA polymerase activity on addition of inhibitor ([1]; added at a concentration from 10 to 100 μM, FIG. 11b): the activity scarcely decreased | sensitivity or resistance of the enzyme to inhibitor [2]: resistance

CCN(CC)CCCC(C)Nc1ccnc2cc(Cl)ccc12 (stereo not drawn) [chloroquine]
inhibition action to the DNA polymerase activity [1]: inhibited the activity | inhibition action to the DNA polymerase activity [4]: an inhibition effect was not shown | inhibition action to the DNA polymerase activity [5]: an inhibition effect was not shown | inhibition of DNA polymerase activity [6]: does not inhibit | inhibition of DNA polymerase activity [7]: does not inhibit | inhibition of DNA polymerase activity [8]: inhibitors

Cc1ccc(C(=O)Nc2ccc(S(=O)(=O)O)c3cc(S(=O)(=O)O)cc(S(=O)(=O)O)c23)cc1NC(=O)c1cccc(NC(=O)Nc2cccc(C(=O)Nc3cc(C(=O)Nc4ccc(S(=O)(=O)O)c5cc(S(=O)(=O)O)cc(S(=O)(=O)O)c45)ccc3C)c2)c1 [suramin]
inhibition action to the DNA polymerase activity [1]: inhibited the activity | inhibition of DNA polymerase activity [8]: inhibitors | inhibition of DNA polymerase activity [9]: inhibits the activities

— patent US20130102499A1, “METHOD FOR DETERMINATION OF ACTIVITY OF MITOCHONDRIAL DNA POLYMERASE OF FALCIPARUM MALARIA, AND METHOD FOR SCREENING FOR ANTI-MALARIA COMPOUND” (OCHANOMIZU UNIVERSITY, priority 2010, published 2013)
